ChEMBL document CHEMBL3507680, “University of Dundee, Gates Library screen for HepG2 cell viability”

Assay: Human HepG2 cell viability assay in 384 well format
Assay type: toxicity, cell-based
Parameters: dose 125 nL, time 70.5 hour; cytotoxicity at 70.5 h: concentration not given beside the values
Details: HepG2 cells, read-out: Inhibition

c1cncc(OCC2CN(Cc3ccco3)Cc3nccn3C2)c1 (configuration not stated)
cytotoxicity at 70.5 h: 21.3%

CC(Oc1cc(Cl)cc(Cl)c1)C(=O)NCCOCC(N)=O (configuration not stated)
cytotoxicity at 70.5 h: 18%

CN(Cc1ccc(F)cc1C#N)CC(F)(F)F
cytotoxicity at 70.5 h: 17.4%

CCOC(=O)CNC(=O)N1CCc2onc(-c3ccc(Cl)cc3)c2C1
cytotoxicity at 70.5 h: -16.3%

O=C(NCCN1CCCCC1)C(c1ccccc1)N1CCCC1 (configuration not stated)
cytotoxicity at 70.5 h: 2.81%

CC(C)NC(=O)N1CCCC2(CC(C(=O)Nc3ccccc3)=NO2)C1 (configuration not stated)
cytotoxicity at 70.5 h: 16.9%

COc1ccc(CCC(=O)N(C)Cc2c(C)nn(C)c2C)cc1
cytotoxicity at 70.5 h: 1.57%

CC(=O)N1[C@H](Cn2cncn2)C[C@@H]2CN(Cc3ccncc3)CC[C@@H]21
cytotoxicity at 70.5 h: -3.75%

CC(C)Cc1ncc2c(n1)CN(c1cc(NC3CC3)nc(N)n1)C2
cytotoxicity at 70.5 h: 0.238%

c1cnnc(NCC2CN(Cc3ccon3)CCO2)c1 (configuration not stated)
cytotoxicity at 70.5 h: 26.6%

CCc1c(C)nc2cc(C3CCN(Cc4ccc(F)cc4)C3)nn2c1O (configuration not stated)
cytotoxicity at 70.5 h: -5.42%

CC(CCc1ccccc1)NC(=O)CNCCCN1CCOCC1 (configuration not stated)
cytotoxicity at 70.5 h: 10.1%

CC(C)(C)CC(=O)N1CC[C@@H](CC(=O)O)[C@@H](CCN2CCCCC2)C1
cytotoxicity at 70.5 h: 8.46%

CCN(CC)CCNC(=O)CCc1c(C)nn(-c2cccc(Cl)c2)c1C
cytotoxicity at 70.5 h: 0.617%

COc1cc(CNc2cnn(C(C)(C)C)c(=O)c2Cl)ccn1
cytotoxicity at 70.5 h: 1.57%

O=C(c1ccoc1)N1CCC(Nc2cccnn2)CC1
cytotoxicity at 70.5 h: -8.84%

CCOc1ccc2oc(-c3cnn(C)c3C)c(O)c(=O)c2c1
cytotoxicity at 70.5 h: -3.56%

CC(C)C(NC(=O)c1ccc(N2CCOCC2)nc1)c1cccs1 (configuration not stated)
cytotoxicity at 70.5 h: -9.4%

Cc1nn(C(C)C)c(C)c1S(=O)(=O)Nc1ccc(C(=O)O)c(Cl)c1
cytotoxicity at 70.5 h: -5.52%

N#Cc1ccccc1OCCN1CCCCC1Cn1cncn1 (configuration not stated)
cytotoxicity at 70.5 h: -7.56%

CCn1cc(NC(=O)C2CCN(CC(=O)NC(C)(C)CC)CC2)cn1
cytotoxicity at 70.5 h: -2.19%

Cn1cc(C2CN(C(=O)Cc3coc(-c4ccccc4)n3)CCO2)cn1 (configuration not stated)
cytotoxicity at 70.5 h: 4.27%

O=C(COc1cccnc1)N1CCOC(C(F)(F)F)C1 (configuration not stated)
cytotoxicity at 70.5 h: -0.535%

Cn1ccnc1CN1CCN(CC(O)c2cccc(F)c2)CC1 (configuration not stated)
cytotoxicity at 70.5 h: -12.2%

CC(C)C(c1cccnc1)N(C)C(=O)Cc1c(F)cccc1F (configuration not stated)
cytotoxicity at 70.5 h: -6.11%

O=C1CCN(Cc2cnc3c(-c4ccccc4)cnn3c2)CCN1
cytotoxicity at 70.5 h: -9.5%

c1ccc(COC[C@H]2CC[C@H]3[C@H](CCN3Cc3ccccn3)O2)nc1
cytotoxicity at 70.5 h: -10.3%

CNC(=O)c1cccc(CN2CCC(N(C)Cc3noc(C)n3)C2)c1 (configuration not stated)
cytotoxicity at 70.5 h: -4.76%

COc1cc(N2CC[C@H](O)[C@@H]2Cc2ccccc2)ncn1
cytotoxicity at 70.5 h: 16.6%

O=C(NCC(F)(F)C(F)F)c1cccnc1
cytotoxicity at 70.5 h: -3.25%

Cn1nc(Cl)cc1C(=O)N1CCC(C(=O)c2nc3ccccc3s2)CC1
cytotoxicity at 70.5 h: 10.5%

Nc1nnc(CCCNc2ncnc3c2CCN(C(=O)C2CC2)C3)s1
cytotoxicity at 70.5 h: -12%

CN(C)C[C@@H]1CN(C(=O)c2cc(F)ccc2F)C[C@@H]1CO
cytotoxicity at 70.5 h: -5.47%

Cc1nc2cc(C(=O)N3C[C@@H](C(=O)O)[C@H](C4CC4)C3)ccc2[nH]1
cytotoxicity at 70.5 h: -3.58%

COC(=O)NCCCn1ccnc1-c1ccccc1
cytotoxicity at 70.5 h: -6.73%

CCn1nc(C)c(CN(CCCN(C)C)Cc2ccccn2)c1C
cytotoxicity at 70.5 h: 21.3%

CN1CCN(C(=O)c2cc(NC(=O)c3ccccc3)n(C)n2)CC1
cytotoxicity at 70.5 h: -12.7%

O=S(=O)(c1cccs1)N1CCC(c2nc(-c3cccs3)no2)CC1
cytotoxicity at 70.5 h: 1.6%

O=C(CCCOc1ccc(F)cc1F)N1CCCC(n2cccn2)C1 (configuration not stated)
cytotoxicity at 70.5 h: -3.24%

Cc1cccc(OCCN2CCCC(c3cc(C(N)=O)[nH]n3)C2)c1 (configuration not stated)
cytotoxicity at 70.5 h: -7.94%

CNC(=O)[C@H]1C[C@@H]2CN(C(=O)c3cccnc3)C[C@@H]2N1S(C)(=O)=O
cytotoxicity at 70.5 h: -11.1%

CN1CC(=O)N(c2ccccc2)CC12CCN(Cc1nccn1C)C2 (configuration not stated)
cytotoxicity at 70.5 h: 4.89%

COCC(O)CN1CCC(=O)N(CC(=O)C(C)(C)C)Cc2ccccc21 (configuration not stated)
cytotoxicity at 70.5 h: -4.8%

CCCOc1cccc(CNC(=O)CN2CCN(C)CC2C)c1 (configuration not stated)
cytotoxicity at 70.5 h: -13.5%

O=C(c1ccnnc1)N1CCC2(CC1)CCN(C(=O)c1cccnc1)C2
cytotoxicity at 70.5 h: -0.196%

Cc1ccc(CN2Cc3c(C(=O)N4CCCC4)nn(C)c3C2)s1
cytotoxicity at 70.5 h: 22.4%

Cc1ncc(CNC(CCO)C2CCCCC2)s1 (configuration not stated)
cytotoxicity at 70.5 h: 1.31%

COc1cc(OC)c(CNC(=O)NCC(=O)N(C)C)c(OC)c1
cytotoxicity at 70.5 h: 1.38%

O=C(Nc1nc2c(s1)CN(S(=O)(=O)C1CC1)CC2)Nc1ccccc1F
cytotoxicity at 70.5 h: 23.7%

O=C(c1ccoc1)N1CCO[C@]2(CCC[C@@H]2COCc2cccnc2)C1
cytotoxicity at 70.5 h: -1.92%

COc1nc2c(cc1C(=O)N1C[C@@H](N)C[C@H]1C(=O)NC(C)C)CCC2
cytotoxicity at 70.5 h: -2.39%

Cn1ncc(N2CCOC(CCNC(=O)NC(C)(C)C)C2)cc1=O (configuration not stated)
cytotoxicity at 70.5 h: 19.2%

O=C(N1CCOCC1)N1C(CN2CCOCC2)[C@]2(O)CC[C@H]1CC2 (some centres not stated)
cytotoxicity at 70.5 h: 3.03%

COc1cccc(CN2CCC3(CCN(c4ncc(F)cn4)CC3)C2)c1
cytotoxicity at 70.5 h: 0.663%

Cc1cnn(C2CN(Cc3nc(-c4cccnc4)no3)C2)c1
cytotoxicity at 70.5 h: 1.92%

Cn1cccc1C(=O)N1CCO[C@@H]2CN(Cc3ccco3)C[C@@H]2C1
cytotoxicity at 70.5 h: -5.04%

COCC1c2nnn(CC3CC3)c2CCN1C(=O)C1CCOCC1 (configuration not stated)
cytotoxicity at 70.5 h: -11.4%

Cc1ccc(N2CC[C@]3(O)CCN(CCN4CCCC4=O)C[C@@H]3C2)nn1
cytotoxicity at 70.5 h: 0.21%

Cc1cccc(COC[C@]23COC[C@H]2CN(C(=O)c2ccsc2)C3)n1
cytotoxicity at 70.5 h: 2.91%

CCc1ccc(C2COCCN2C(=O)NCc2cccc(C#N)c2)o1 (configuration not stated)
cytotoxicity at 70.5 h: -9.17%

COCCOCC(=O)Nc1ccc(C)cc1Cl
cytotoxicity at 70.5 h: -0.473%

O=C(NC[C@H]1OC[C@@H](NC2CCOCC2)[C@@H]1O)C1CCCC1
cytotoxicity at 70.5 h: -6.06%

Cc1cn2c(n1)CCC(NC(=O)c1[nH]nc(C)c1Br)C2 (configuration not stated)
cytotoxicity at 70.5 h: 13.2%

c1cc(C2CCN(Cc3nc(-c4ccsc4)no3)CC2)[nH]n1
cytotoxicity at 70.5 h: -3.49%

O=C1C(NCc2ccc3c(c2)CCO3)CCN1Cc1ccccc1 (configuration not stated)
cytotoxicity at 70.5 h: -14.7%

NC(=O)CN1CCC2(CC1)CC(=O)c1ccc3ccccc3c1O2
cytotoxicity at 70.5 h: -2.33%

Cc1noc(C)c1CC(=O)N1CCCC(Cn2ccnc2C)C1 (configuration not stated)
cytotoxicity at 70.5 h: -16.8%

CCN(CC)Cc1ccc(C(=O)N2CCN(CC(C)O)CC2)cc1 (configuration not stated)
cytotoxicity at 70.5 h: -4.2%

CC(C)(C)c1nc(CN(Cc2ccccc2F)C2CCCCC2)no1
cytotoxicity at 70.5 h: -8.5%

COc1ccc(N(C)C(=O)C2CN(C)CCO2)cc1Cl (configuration not stated)
cytotoxicity at 70.5 h: 8.7%

Cc1cccc(C(=O)N2CCCn3cnc(CN4CCCC4=O)c3C2)n1
cytotoxicity at 70.5 h: 30.9%

CN(Cc1ccco1)Cc1ccccc1CNC(=O)c1ccncc1
cytotoxicity at 70.5 h: -8%

COc1ccc(Oc2ncccc2NC(=O)N2CC[C@H](O)C2)cc1
cytotoxicity at 70.5 h: -1.8%

CC(C)CN1CCc2[nH]cnc2C12CCN(C(=O)c1cccnc1)CC2
cytotoxicity at 70.5 h: 12.4%

COCC(=O)N1CCCC1c1ccc(C(=O)NCCN2CCCCC2)s1 (configuration not stated)
cytotoxicity at 70.5 h: -10.2%

CNC(C(=O)OC)c1cc(F)ccc1F (configuration not stated)
cytotoxicity at 70.5 h: -3.37%

CCNC(=O)CCCC(=O)N1CCc2cc(Cl)cc(Cl)c2C1
cytotoxicity at 70.5 h: -4.11%

Cc1ccsc1CN(C)c1cc(N2CCCC2CO)ncn1 (configuration not stated)
cytotoxicity at 70.5 h: -3.13%

CO[C@@H]1CCN(C(=O)c2cc(C)on2)C[C@@H]1Cc1ccccc1
cytotoxicity at 70.5 h: 20.3%

O=C1C[C@H]2CC[C@@H](CN1)N2C1CCSCC1
cytotoxicity at 70.5 h: 0.716%

CCC(C(=O)N(C)C)n1ccc2ncccc2c1=O (configuration not stated)
cytotoxicity at 70.5 h: -13.2%

COc1ccc(-c2noc([C@@H]3C[C@@H](O)CN3C3CCN(C)CC3)n2)cc1
cytotoxicity at 70.5 h: -2.03%

O=C(CCN1CCSCC1c1ccccc1)N1CCOCC1 (configuration not stated)
cytotoxicity at 70.5 h: 7.46%

CN1[C@H]2CC[C@@H]1CN(C(=O)CCc1csc(N)n1)CC2
cytotoxicity at 70.5 h: -11.5%

O=C(c1cccnc1O)N1CCOC(Cc2cccc(C(F)(F)F)c2)C1 (configuration not stated)
cytotoxicity at 70.5 h: -7%

Cc1cccc(-c2cc(C(=O)O)sn2)c1
cytotoxicity at 70.5 h: -14.1%

CCOCC(=O)N1C[C@@H]2CC[C@H](C1)N(Cc1ccccn1)C2=O
cytotoxicity at 70.5 h: -9.63%

CCN(CC)C(=O)C1(NCc2nc(C)c(C)o2)CCCCC1
cytotoxicity at 70.5 h: -4.63%

CNC(=O)C1(C)CN(c2nc(C)cc(C)n2)CCO1 (configuration not stated)
cytotoxicity at 70.5 h: 1.44%

O=C(c1cnc(NCc2cccnc2)c(Cl)c1)N1CCCCC1
cytotoxicity at 70.5 h: -12.2%

O=C1Nc2ccccc2CC12CCCN2Cc1ccccn1 (configuration not stated)
cytotoxicity at 70.5 h: 29.1%

CC(=O)N1CCCC1c1cc(Nc2nnc(C)s2)nc(C)n1 (configuration not stated)
cytotoxicity at 70.5 h: 17.2%

CC(C)c1nnc2n1CC(CNCc1ccsc1)CC2 (configuration not stated)
cytotoxicity at 70.5 h: 2.53%

CCN(CC(=O)Nc1c(C)n[nH]c1C)CC(O)c1ccc(C)cc1 (configuration not stated)
cytotoxicity at 70.5 h: 13.8%

CCN1CCC2(CC1)c1nc[nH]c1CCN2S(C)(=O)=O
cytotoxicity at 70.5 h: -6.08%

CC1c2ncc(Cn3cccn3)n2CCN1Cc1cccnc1 (configuration not stated)
cytotoxicity at 70.5 h: -1.36%

CCN(CCn1cccn1)Cc1nc(-c2cc(F)ccc2F)oc1C
cytotoxicity at 70.5 h: -11.2%

Cc1c(CS(C)(=O)=O)cccc1NCC1CCCCC1
cytotoxicity at 70.5 h: 7.16%

CSCCC(NC(=O)c1ccc2ccccc2n1)C(=O)NC1CC1 (configuration not stated)
cytotoxicity at 70.5 h: -8.01%

C=C(C)CN(CC)C(=O)CN(C)C1CCc2ccccc21 (configuration not stated)
cytotoxicity at 70.5 h: -2.32%

O=C(CCc1cccc(C2CCNCC2)n1)N1CCCCC1
cytotoxicity at 70.5 h: -12.2%

CC(=O)N1CCC2(CC1)CCN(S(=O)(=O)c1ccccc1)C2
cytotoxicity at 70.5 h: 29.2%

O=C1CCC(c2ccc(Cl)cc2)=NN1CN1CCSCC1
cytotoxicity at 70.5 h: -15.1%

CC(CNCc1ccc(F)cc1)Oc1ccccn1 (configuration not stated)
cytotoxicity at 70.5 h: -17.7%

C=C1C(C)(C)[C@H]2CC[C@]1(C(=O)N1CCC(n3cc(CO)nn3)CC1)C2
cytotoxicity at 70.5 h: -7.81%

CCN1CCN(Cc2coc(-c3cccc(F)c3)n2)CC1
cytotoxicity at 70.5 h: 20.2%

CS(=O)(=O)CCOCCNc1ccc(C(F)(F)F)cc1C#N
cytotoxicity at 70.5 h: -3.49%

O=C(NCCc1ccc(Cl)s1)NCc1nnc2n1CCCC2
cytotoxicity at 70.5 h: -12.9%

O=C(C1CC=CC1)N1CC[C@@H]2O[C@@H](COCC3CCOCC3)CC[C@@H]21
cytotoxicity at 70.5 h: 6.54%

CC(C)Cc1noc(CN(C)C[C@]2(O)CCCN3CCCC[C@@H]32)n1
cytotoxicity at 70.5 h: -12.8%

CN1CCC(Cc2noc(-c3cn(Cc4ccc(F)cc4)nn3)n2)CC1
cytotoxicity at 70.5 h: -3.72%

CCOc1cc(C(=O)N2CCCC(n3cncn3)C2)ccc1C (configuration not stated)
cytotoxicity at 70.5 h: -20.7%
